Assays:
Assay type in all cases: functional
SNB-75 [1] = test: Cytotoxicity against human SNB75 cells assessed as cell growth at 10^-8 M after 48 hrs by SRB assay relative to control; details: SNB-75, 48 h, read-out: Activity
[2] = Cytotoxicity against human OVCAR3 cells assessed as cell growth at 10^-8 M after 48 hrs by SRB assay relative to control; details: OVCAR-3, 48 h, read-out: Activity
SN12C = test: Cytotoxicity against human SN12C cells assessed as cell growth at 10^-8 M after 48 hrs by SRB assay relative to control; details: read-out: Activity
NCI-H322M = test: Cytotoxicity against human NCI-H322M cells assessed as cell growth at 10^-8 M after 48 hrs by SRB assay relative to control; details: read-out: Activity
[3] = Cytotoxicity against human OVCAR5 cells assessed as cell growth at 10^-6 M after 48 hrs by SRB assay relative to control; details: OVCAR-5, 48 h, read-out: Activity
MDA-MB-231 = test: Cytotoxicity against human MDA-MB-231 cells assessed as cell growth at 10^-8 M after 48 hrs by SRB assay relative to control; details: MDA-MB-231, 48 h, read-out: Activity
A498 = test: Cytotoxicity against human A498 cells assessed as cell growth at 10^-7 M after 48 hrs by SRB assay relative to control; details: A498, 48 h, read-out: Activity
DU-145 = test: Cytotoxicity against human DU145 cells assessed as cell growth at 10^-7 M after 48 hrs by SRB assay relative to control; details: DU-145, 48 h, read-out: Activity
MDA-MB-435 = test: Cytotoxicity against human MDA-MB-435 cells after 48 hrs by SRB assay; details: MDA-MB-435, 48 h; for CC50: read-out: LC50 (the source's name)
[4] = Cytotoxicity against human UACC62 cells assessed as cell growth at 10^-4 M after 48 hrs by SRB assay relative to control; details: UACC-62, 48 h, read-out: Activity
MCF7 = test: Cytotoxicity against human MCF7 cells assessed as cell growth at 10^-6 M after 48 hrs by SRB assay relative to control; details: MCF7, 48 h, read-out: Activity
SNB-19 = test: Cytotoxicity against human SNB19 cells assessed as cell growth at 10^-6 M after 48 hrs by SRB assay relative to control; details: SNB-19, 48 h, read-out: Activity
RXF 393 = test: Cytotoxicity against human RXF393 cells assessed as cell growth at 10^-6 M after 48 hrs by SRB assay relative to control; details: RXF 393, 48 h, read-out: Activity
BT-549 = test: Cytotoxicity against human BT549 cells assessed as cell growth at 10^-7 M after 48 hrs by SRB assay relative to control; details: BT-549, 48 h, read-out: Activity
NCI-H23 [5] = test: Cytotoxicity against human NCI-H23 cells assessed as cell growth at 10^-6 M after 48 hrs by SRB assay relative to control; details: NCI-H23, 48 h, read-out: Activity
K562 = test: Cytotoxicity against human K562 cells assessed as cell growth at 10^-7 M after 48 hrs by SRB assay relative to control; details: K562, 48 h, read-out: Activity
CAKI-1 = test: Cytotoxicity against human Caki1 cells assessed as cell growth at 10^-4 M after 48 hrs by SRB assay relative to control; details: CAKI-1, 48 h, read-out: Activity
ACHN = test: Cytotoxicity against human ACHN cells assessed as cell growth at 10^-8 M after 48 hrs by SRB assay relative to control; details: read-out: Activity
[6] = Cytotoxicity against human PC3 cells assessed as cell growth at 10^-4 M after 48 hrs by SRB assay relative to control; details: PC-3, 48 h, read-out: Activity
[7] = Cytotoxicity against human NCI-ADR-RES cells assessed as cell growth at 10^-6 M after 48 hrs by SRB assay relative to control; details: read-out: Activity
[8] = Cytotoxicity against human NCI-ADR-RES cells assessed as cell growth at 10^-7 M after 48 hrs by SRB assay relative to control; details: read-out: Activity
KM12 = test: Cytotoxicity against human KM12 cells after 48 hrs by SRB assay; details: KM12, 48 h; for CC50: read-out: LC50 (the source's name)
SF-268 = test: Cytotoxicity against human SF268 cells assessed as cell growth at 10^-4 M after 48 hrs by SRB assay relative to control; details: SF-268, 48 h, read-out: Activity
[9] = Cytotoxicity against human HCT15 cells assessed as cell growth at 10^-8 M after 48 hrs by SRB assay relative to control; details: HCT-15, 48 h, read-out: Activity
Malme-3M = test: Cytotoxicity against human MALME-3M cells after 48 hrs by SRB assay; details: for CC50: read-out: LC50 (the source's name)
SF-295 = test: Cytotoxicity against human SF295 cells after 48 hrs by SRB assay; details: SF-295, 48 h; for CC50: read-out: LC50 (the source's name)
[10] = Cytotoxicity against human HCT15 cells assessed as cell growth at 10^-7 M after 48 hrs by SRB assay relative to control; details: HCT-15, 48 h, read-out: Activity
SF-539 = test: Cytotoxicity against human SF539 cells assessed as cell growth at 10^-6 M after 48 hrs by SRB assay relative to control; details: SF-539, 48 h, read-out: Activity
SK-MEL-28 = test: Cytotoxicity against human SK-MEL-28 cells assessed as cell growth at 10^-8 M after 48 hrs by SRB assay relative to control; details: SK-MEL-28, 48 h, read-out: Activity
NCI-H23 [11] = test: Cytotoxicity against human NCI-H23 cells assessed as cell growth at 10^-8 M after 48 hrs by SRB assay relative to control; details: NCI-H23, 48 h, read-out: Activity
[12] = Cytotoxicity against human EKVX cells assessed as cell growth at 10^-7 M after 48 hrs by SRB assay relative to control; details: read-out: Activity
SNB-75 [13] = test: Cytotoxicity against human SNB75 cells assessed as cell growth at 10^-7 M after 48 hrs by SRB assay relative to control; details: SNB-75, 48 h, read-out: Activity
[14] = Cytotoxicity against human Hs 578T cells after 48 hrs by SRB assay
NCI-H226 = test: Cytotoxicity against human NCI-H226 cells assessed as cell growth at 10^-7 M after 48 hrs by SRB assay relative to control; details: NCI-H226, 48 h, read-out: Activity
T47D = test: Cytotoxicity against human T47D cells assessed as cell growth at 10^-8 M after 48 hrs by SRB assay relative to control; details: read-out: Activity
[15] = Cytotoxicity against human UACC62 cells assessed as cell growth at 10^-7 M after 48 hrs by SRB assay relative to control; details: UACC-62, 48 h, read-out: Activity

CC(C)=CCC[C@H](C)c1ccc(C)c(CNCC2CCNCC2)c1O
growth at 0.01 µM (SNB-75 [1]): 90% | growth at 0.01 µM [2]: 105% | growth at 0.01 µM (SN12C): 92% | growth at 0.01 µM (NCI-H322M): 99% | growth at 1 µM [3]: 90% | growth at 0.01 µM (MDA-MB-231): 105% | growth at 0.1 µM (A498): 74% | growth at 0.1 µM (DU-145): 96% | GI50 (MDA-MB-435): 3.71 µM | TGI (MDA-MB-435): 8.44 µM | CC50 (MDA-MB-435): 19.2 µM | growth at 100 µM [4]: -81% | growth at 1 µM (MCF7): 93% | growth at 1 µM (SNB-19): 93% | growth at 1 µM (RXF 393): 95% | growth at 0.1 µM (BT-549): 89% | growth at 1 µM (NCI-H23 [5]): 94% | growth at 0.1 µM (K562): 99% | growth at 100 µM (CAKI-1): -29% | growth at 0.01 µM (ACHN): 96% | growth at 100 µM [6]: 6% | growth at 1 µM [7]: 95% | growth at 0.1 µM [8]: 100% | GI50 (KM12): 4.12 µM | TGI (KM12): 8.38 µM | CC50 (KM12): 17.1 µM | growth at 100 µM (SF-268): 14% | growth at 0.01 µM [9]: 102% | GI50 (Malme-3M): 4.5 µM | TGI (Malme-3M): 9.68 µM | CC50 (Malme-3M): 20.8 µM | GI50 (SF-295): 3.31 µM | TGI (SF-295): 7.53 µM | CC50 (SF-295): 17.1 µM | growth at 0.1 µM [10]: 100% | growth at 1 µM (SF-539): 92% | growth at 0.01 µM (SK-MEL-28): 102% | growth at 0.01 µM (NCI-H23 [11]): 94% | growth at 0.1 µM [12]: 94% | growth at 0.1 µM (SNB-75 [13]): 90% | GI50 [14]: 6.53 µM | LC50 [14]: > 25 µM | TGI [14]: > 25 µM | growth at 0.1 µM (NCI-H226): 79% | growth at 0.01 µM (T47D): 101% | growth at 0.1 µM [15]: 90%

COc1ccc(CCN2COc3c([C@@H](C)CCC=C(C)C)ccc(C)c3C2)cc1OC
growth at 0.01 µM (SNB-75 [1]): 79% | growth at 0.01 µM [2]: 95% | growth at 0.01 µM (SN12C): 86% | growth at 0.01 µM (NCI-H322M): 87% | growth at 1 µM [3]: 97% | growth at 0.01 µM (MDA-MB-231): 100% | growth at 0.1 µM (A498): 97% | growth at 0.1 µM (DU-145): 94% | GI50 (MDA-MB-435): 3.11 µM | TGI (MDA-MB-435): 10.9 µM | CC50 (MDA-MB-435): 44.9 µM | growth at 100 µM [4]: -99% | growth at 1 µM (MCF7): 99% | growth at 1 µM (SNB-19): 95% | growth at 1 µM (RXF 393): 76% | growth at 0.1 µM (BT-549): 91% | growth at 1 µM (NCI-H23 [5]): 104% | growth at 0.1 µM (K562): 95% | growth at 100 µM (CAKI-1): -86% | growth at 0.01 µM (ACHN): 95% | growth at 100 µM [6]: -61% | growth at 1 µM [7]: 96% | growth at 0.1 µM [8]: 99% | GI50 (KM12): 2.86 µM | TGI (KM12): 9.64 µM | CC50 (KM12): 46.1 µM | growth at 100 µM (SF-268): -88% | growth at 0.01 µM [9]: 85% | GI50 (Malme-3M): 1.53 µM | TGI (Malme-3M): 3.18 µM | CC50 (Malme-3M): 6.61 µM | GI50 (SF-295): 2.02 µM | TGI (SF-295): 6.56 µM | CC50 (SF-295): 29 µM | growth at 0.1 µM [10]: 86% | growth at 1 µM (SF-539): 96% | growth at 0.01 µM (SK-MEL-28): 106% | growth at 0.01 µM (NCI-H23 [11]): 97% | growth at 0.1 µM [12]: 91% | growth at 0.1 µM (SNB-75 [13]): 86% | GI50 [14]: 3.94 µM | LC50 [14]: 65.2 µM | TGI [14]: 17.3 µM | growth at 0.1 µM (NCI-H226): 88% | growth at 0.01 µM (T47D): 88% | growth at 0.1 µM [15]: 90%

CC(C)=CCC[C@H](C)c1ccc(C)c2c1OCN(CC1CCNCC1)C2
growth at 0.01 µM (SNB-75 [1]): 92% | growth at 0.01 µM [2]: 99% | growth at 0.01 µM (SN12C): 97% | growth at 0.01 µM (NCI-H322M): 98% | growth at 1 µM [3]: 85% | growth at 0.01 µM (MDA-MB-231): 101% | growth at 0.1 µM (A498): 82% | growth at 0.1 µM (DU-145): 94% | GI50 (MDA-MB-435): 6.48 µM | TGI (MDA-MB-435): 20.9 µM | CC50 (MDA-MB-435): 53.4 µM | growth at 100 µM [4]: -92% | growth at 1 µM (MCF7): 104% | growth at 1 µM (SNB-19): 94% | growth at 1 µM (RXF 393): 125% | growth at 0.1 µM (BT-549): 87% | growth at 1 µM (NCI-H23 [5]): 105% | growth at 0.1 µM (K562): 99% | growth at 100 µM (CAKI-1): -69% | growth at 0.01 µM (ACHN): 100% | growth at 100 µM [6]: -46% | growth at 1 µM [7]: 102% | growth at 0.1 µM [8]: 98% | GI50 (KM12): 12.3 µM | TGI (KM12): 26 µM | CC50 (KM12): 55 µM | growth at 100 µM (SF-268): -79% | growth at 0.01 µM [9]: 93% | GI50 (Malme-3M): 17.7 µM | TGI (Malme-3M): 35.3 µM | CC50 (Malme-3M): 70.2 µM | GI50 (SF-295): 15.9 µM | TGI (SF-295): 34.9 µM | CC50 (SF-295): 76.5 µM | growth at 0.1 µM [10]: 91% | growth at 1 µM (SF-539): 104% | growth at 0.01 µM (SK-MEL-28): 107% | growth at 0.01 µM (NCI-H23 [11]): 94% | growth at 0.1 µM [12]: 103% | growth at 0.1 µM (SNB-75 [13]): 85% | GI50 [14]: 13.3 µM | LC50 [14]: 67 µM | TGI [14]: 29.9 µM | growth at 0.1 µM (NCI-H226): 98% | growth at 0.01 µM (T47D): 95% | growth at 0.1 µM [15]: 96%

Reference: ChEMBL document CHEMBL3390836, “Mannich- and LedererManasse-based analogues of the natural product S-(+)-curcuphenol as cancer proliferation and migration inhibitors” (Medchemcomm, 2012)
